Patent US20130109682A1, “CYCLIC ETHER COMPOUNDS USEFUL AS KINASE INHIBITORS” (NOVARTIS AG, priority 2010, published 2013)

Assays:
[1] = molecular target: PIM1 (Homo sapiens, UniProt P11309); test: KinaseGlo Pim1 ATP depletion assay; format: biochemical
How it was run: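 2.5 nM PIM1 preincubated 15 min with compound and 40 μM BAD peptide in 50 mM HEPES pH 7.5, 5 mM MgCl2, 1 mM DTT, 0.05% BSA, 2.5% DMSO. The reaction was started with 20 μM ATP (final) and run to about 50% ATP depletion. Remaining ATP read by KinaseGlo Plus luminescence to give IC50.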

[2] = test system: KMS11 (human myeloma cell line); test: Cell proliferation assay (CellTiter-Glo), KMS11; format: cell-based; conditions: Homo sapiens, KMS-11; KMS11-Luc cells
How it was run: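 KMS11 cells in IMDM with 10% FBS and sodium pyruvate, seeded at 2000 cells/well on assay day. Compound added at 2× to equal volume of cells, incubated 3 days at 37° C. Viability read by CellTiter-Glo luminescence; EC50 derived.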

[3] = molecular target: PIM2 (Homo sapiens, UniProt Q9P1W9); test: KinaseGlo Pim2 ATP depletion assay; format: biochemical
How it was run: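 Luminescent ATP-depletion read-out of PIM2 phosphorylating BAD peptide (RSRHSSYPAGT-OH). Final conditions: 5 nM PIM2, 4 μM ATP, 10 μM peptide, 2.5% DMSO in 50 mM HEPES pH 7.5, 5 mM MgCl2, 1 mM DTT, 0.05% BSA. Enzyme–peptide preincubated 15 min with compound; reaction run to ~50% ATP depletion.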

[4] = molecular target: PIM3 (Homo sapiens, UniProt Q86V86); test: KinaseGlo Pim3 ATP depletion assay; format: biochemical
How it was run: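 Kinase was preincubated 15 min with BAD peptide in HEPES pH 7.5/MgCl2/DTT/BSA before ATP was added. Final concentrations were 40 μM ATP, 100 μM BAD peptide and 2.5% DMSO, with 5 nM enzyme. The reaction ran to ~50% ATP depletion and remaining ATP was read by KinaseGlo Plus luminescence.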

[5] = molecular target: GSK3β (Homo sapiens, UniProt P49841); test: GSK3β ATP depletion assay; format: biochemical; conditions: read-out: GSK3b IC50
How it was run: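 Human GSK3β (5 nM) preincubated 15 min with 10 μM biotinylated phospho-CREB peptide in pH 7.5 Tris buffer (15 mM MgCl2, 1 mM DTT, 0.1% BSA, 2.5% DMSO). Reaction started with 2 μM ATP and run to about 50% ATP depletion. Remaining ATP measured by KinaseGlo luminescence.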

Chain of GSK3β (P49841 whole entry, species assumed): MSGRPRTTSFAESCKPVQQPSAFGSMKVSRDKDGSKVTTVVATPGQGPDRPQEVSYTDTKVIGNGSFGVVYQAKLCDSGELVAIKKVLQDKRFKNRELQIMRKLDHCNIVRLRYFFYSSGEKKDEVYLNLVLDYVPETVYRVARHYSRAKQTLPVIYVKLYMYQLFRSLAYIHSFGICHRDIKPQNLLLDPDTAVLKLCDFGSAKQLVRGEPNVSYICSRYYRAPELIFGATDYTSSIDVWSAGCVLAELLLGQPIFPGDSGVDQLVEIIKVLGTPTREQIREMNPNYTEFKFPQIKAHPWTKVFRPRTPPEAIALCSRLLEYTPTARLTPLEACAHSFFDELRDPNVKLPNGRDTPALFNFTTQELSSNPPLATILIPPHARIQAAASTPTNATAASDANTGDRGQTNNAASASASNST
Chain of PIM2 (Q9P1W9 whole entry): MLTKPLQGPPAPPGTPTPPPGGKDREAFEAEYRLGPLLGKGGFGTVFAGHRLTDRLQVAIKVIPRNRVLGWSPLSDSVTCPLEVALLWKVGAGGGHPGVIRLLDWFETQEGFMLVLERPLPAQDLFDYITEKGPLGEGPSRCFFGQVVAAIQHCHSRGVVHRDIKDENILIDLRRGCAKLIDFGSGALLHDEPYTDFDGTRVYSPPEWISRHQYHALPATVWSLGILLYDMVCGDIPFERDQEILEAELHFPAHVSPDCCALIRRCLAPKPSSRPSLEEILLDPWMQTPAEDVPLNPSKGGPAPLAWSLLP
Chain of PIM1 (P11309 whole entry): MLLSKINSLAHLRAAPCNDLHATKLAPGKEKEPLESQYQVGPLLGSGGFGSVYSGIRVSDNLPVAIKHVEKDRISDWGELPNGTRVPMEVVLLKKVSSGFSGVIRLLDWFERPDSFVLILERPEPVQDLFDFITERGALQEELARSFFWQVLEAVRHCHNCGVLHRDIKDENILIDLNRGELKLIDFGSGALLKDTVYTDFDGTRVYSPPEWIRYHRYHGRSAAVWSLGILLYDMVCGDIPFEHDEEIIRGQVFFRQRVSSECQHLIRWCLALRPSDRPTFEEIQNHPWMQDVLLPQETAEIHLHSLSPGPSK

Structure (SMILES)	IC50 [1] [nM]	EC50 [2] [nM]	IC50 [3] [nM]	IC50 [4] [nM]	IC50 [5] [nM]
Nc1cc(F)c(-c2ccccc2F)nc1C(=O)Nc1cnccc1C1=C[C@@H](O)[C@H](O)[C@@H](CCl)O1 [Example 29, 3-amino-N-(4-((2S,3S,4R)-2-(chloromethyl)-3,4-dihydroxy-3,4-dihydro-2H-pyran-6-yl)pyridin-3-yl)-5-fluoro-6-(2-fluorophenyl)picolinamide]	1	4670	1	1	41
Nc1cc(F)c(-c2c(F)cccc2F)nc1C(=O)Nc1cnccc1C1=C[C@@H](O)[C@H](O)[C@@H](CCl)O1 [Example 30, 3-amino-N-(4-((2S,3S,4R)-2-(chloromethyl)-3,4-dihydroxy-3,4-dihydro-2H-pyran-6-yl)pyridin-3-yl)-6-(2,6-difluorophenyl)-5-fluoropicolinamide]	1	825	1	1	201
C[C@H]1O[C@@H](c2ccncc2NC(=O)c2nc(-c3c(F)cccc3F)c(F)cc2N)C[C@@H](O)[C@]1(C)O [Example 33, 3-amino-6-(2,6-difluorophenyl)-N-(4-((2R,4R,5S,6R)-4,5-dihydroxy-5,6-dimethyltetrahydro-2H-pyran-2-yl)pyridin-3-yl)-5-fluoropicolinamide]	1	4530	2	2	276
CC[C@H]1O[C@@H](c2ccncc2NC(=O)c2ccnc(-c3c(F)cccc3F)n2)C[C@@H](O)[C@@H]1O [Example 34, 2-(2,6-difluorophenyl)-N-(4-((2R,4R,5S,6R)-6-ethyl-4,5-dihydroxytetrahydro-2H-pyran-2-yl)pyridin-3-yl)pyrimidine-4-carboxamide]	22	5000	170	38	61
Nc1cc(F)c(-c2ccccc2F)nc1C(=O)Nc1cnccc1[C@H]1C[C@@H](O)[C@H](O)[C@@H](CCl)O1 [Example 38, 3-amino-N-(4-((2R,4R,5S,6S)-6-(chloromethyl)-4,5-dihydroxytetrahydro-2H-pyran-2-yl)pyridin-3-yl)-5-fluoro-6-(2-fluorophenyl)picolinamide]	1	6900	3	2	15
CC[C@H]1O[C@@H](c2ccncc2NC(=O)c2nc(-c3c(F)cccc3F)sc2N)C[C@@H](O)[C@@H]1O [Example 40, 5-amino-2-(2,6-difluorophenyl)-N-(4-((2R,4R,5S,6R)-6-ethyl-4,5-dihydroxytetrahydro-2H-pyran-2-yl)pyridin-3-yl)thiazole-4-carboxamide]	1	600	2	2	2
CC[C@H]1O[C@@H](c2ccncc2NC(=O)c2csc(-c3c(F)cccc3F)n2)C[C@@H](O)[C@@H]1O [Example 41, 2-(2,6-difluorophenyl)-N-(4-((2R,4R,5S,6R)-6-ethyl-4,5-dihydroxytetrahydro-2H-pyran-2-yl)pyridin-3-yl)thiazole-4-carboxamide]	1	9900	65	7	17
CC[C@H]1O[C@@H](c2ccncc2NC(=O)c2nc(-c3ccccc3F)c(F)cc2N)C[C@@H](O)[C@@H]1O [Example 42, 3-amino-N-(4-((2R,4R,5S,6R)-6-ethyl-4,5-dihydroxytetrahydro-2H-pyran-2-yl)pyridin-3-yl)-5-fluoro-6-(2-fluorophenyl)picolinamide]	1	9600	3	1	23
CC[C@H]1O[C@@H](c2ccncc2NC(=O)c2nc(-c3c(F)cccc3F)c(F)cc2N)C[C@@H](O)[C@@H]1O [Example 43, 3-amino-6-(2,6-difluorophenyl)-N-(4-((2R,4R,5S,6R)-6-ethyl-4,5-dihydroxytetrahydro-2H-pyran-2-yl)pyridin-3-yl)-5-fluoropicolinamide]	1	1700	1	1	188
C=C[C@H]1OC(c2ccncc2NC(=O)c2ccc(F)c(-c3c(F)cccc3F)n2)=C[C@@H](O)[C@@H]1O [Example 44, 6-(2,6-difluorophenyl)-N-(4-((2R,3S,4R)-3,4-dihydroxy-2-vinyl-3,4-dihydro-2H-pyran-6-yl)pyridin-3-yl)-5-fluoropicolinamide]	1	900	1	1	339
O=C(Nc1cnccc1[C@H]1C[C@@H](O)CC2(CC2)O1)c1csc(-c2c(F)cccc2F)n1 [Example 61, 2-(2,6-difluorophenyl)-N-(4-((5R,7R)-7-hydroxy-4-oxaspiro[2.5]octan-5-yl)pyridin-3-yl)thiazole-4-carboxamide]	7	> 10000	599	20	65

Now from value to molecule:

IC50 [1] [nM]	EC50 [2] [nM]	IC50 [3] [nM]	IC50 [4] [nM]	IC50 [5] [nM]	Structure (SMILES)
1	1900	1	1	117	O=C(Nc1cnccc1C1=C[C@@H](O)[C@H](O)[C@@H](CCl)O1)c1ccc(F)c(-c2c(F)cccc2F)n1 [Example 31, N-(4-((2S,3S,4R)-2-(chloromethyl)-3,4-dihydroxy-3,4-dihydro-2H-pyran-6-yl)pyridin-3-yl)-6-(2,6-difluorophenyl)-5-fluoropicolinamide]
1	1000	1	1	88	Nc1cc(F)c(-c2c(F)cccc2F)nc1C(=O)Nc1cnccc1[C@H]1C[C@@H](O)[C@H](O)[C@@H](CCl)O1 [Example 35, 3-amino-N-(4-((2R,4R,5S,6S)-6-(chloromethyl)-4,5-dihydroxytetrahydro-2H-pyran-2-yl)pyridin-3-yl)-6-(2,6-difluorophenyl)-5-fluoropicolinamide]
12	> 10000	65	17	14	O=C(Nc1cnccc1[C@H]1C[C@@H](O)[C@H](O)[C@@H](CCl)O1)c1ccnc(-c2c(F)cccc2F)n1 [Example 37, N-(4-((2R,4R,5S,6S)-6-(chloromethyl)-4,5-dihydroxytetrahydro-2H-pyran-2-yl)pyridin-3-yl)-2-(2,6-difluorophenyl)pyrimidine-4-carboxamide]
7	> 10000	149	33	442	N#CC[C@H]1O[C@@H](c2ccncc2NC(=O)c2ccc(F)c(-c3c(F)cccc3F)n2)CC[C@@H]1O [Example 46, N-(4-((2R,5S,6R)-6-(cyanomethyl)-5-hydroxytetrahydro-2H-pyran-2-yl)pyridin-3-yl)-6-(2,6-difluorophenyl)-5-fluoropicolinamide]
58	> 10000	356	113	9180	N#CC[C@H]1O[C@@H](c2ccncc2NC(=O)c2ccc(C#N)c(-c3c(F)cccc3F)n2)C[C@@H](O)[C@@H]1O [Example 47, 5-cyano-N-(4-((2R,4R,5S,6R)-6-(cyanomethyl)-4,5-dihydroxytetrahydro-2H-pyran-2-yl)pyridin-3-yl)-6-(2,6-difluorophenyl)picolinamide]
2	5500	101	26	911	O=C(Nc1cnccc1[C@H]1C[C@H](Cl)[C@H](O)[C@@H](CCl)O1)c1ccc(F)c(-c2c(F)cccc2F)n1 [Example 55, N-(4-((2R,4S,5R,6S)-4-chloro-6-(chloromethyl)-5-hydroxytetrahydro-2H-pyran-2-yl)pyridin-3-yl)-6-(2,6-difluorophenyl)-5-fluoropicolinamide]
19	6100	111	28	2000	COC[C@H]1O[C@@H](c2ccncc2NC(=O)c2ccc(F)c(-c3c(F)cccc3F)n2)C[C@@H](O)[C@@H]1O [Example 57, 6-(2,6-difluorophenyl)-N-(4-((2R,4R,5S,6R)-4,5-dihydroxy-6-(methoxymethyl)tetrahydro-2H-pyran-2-yl)pyridin-3-yl)-5-fluoropicolinamide]
6	> 10000	162	14	757	O=C(Nc1cnccc1[C@H]1C[C@@H](O)CC2(CC2)O1)c1ccc(F)c(-c2c(F)cccc2F)n1 [Example 59, 6-(2,6-difluorophenyl)-5-fluoro-N-(4-((5R,7R)-7-hydroxy-4-oxaspiro[2.5]octan-5-yl)pyridin-3-yl)picolinamide]
